Data on 3 compounds can be found in US20210395256A1, “TYROSINE KINASE INHIBITORS, COMPOSITIONS AND METHODS THERE OF” (Betta Pharmaceuticals Co., Ltd., priority 2018, published 2021).

The target in one data set is TrkA kinase (Homo sapiens, UniProt P04629). Put plainly: TrkA kinase assay (mobility shift assay). Format: biochemical. To be noted: numeric values; read-out: Trk A Kinase IC50. The method, boiled down: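 Ten-point compound series was preincubated 10 min at room temperature with TrkA, then FAM-peptide plus ATP added in HEPES pH 7.5/Brij-35 buffer and reacted at 28 °C before EDTA quench.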
Sequence of TrkA kinase (P04629 33-796): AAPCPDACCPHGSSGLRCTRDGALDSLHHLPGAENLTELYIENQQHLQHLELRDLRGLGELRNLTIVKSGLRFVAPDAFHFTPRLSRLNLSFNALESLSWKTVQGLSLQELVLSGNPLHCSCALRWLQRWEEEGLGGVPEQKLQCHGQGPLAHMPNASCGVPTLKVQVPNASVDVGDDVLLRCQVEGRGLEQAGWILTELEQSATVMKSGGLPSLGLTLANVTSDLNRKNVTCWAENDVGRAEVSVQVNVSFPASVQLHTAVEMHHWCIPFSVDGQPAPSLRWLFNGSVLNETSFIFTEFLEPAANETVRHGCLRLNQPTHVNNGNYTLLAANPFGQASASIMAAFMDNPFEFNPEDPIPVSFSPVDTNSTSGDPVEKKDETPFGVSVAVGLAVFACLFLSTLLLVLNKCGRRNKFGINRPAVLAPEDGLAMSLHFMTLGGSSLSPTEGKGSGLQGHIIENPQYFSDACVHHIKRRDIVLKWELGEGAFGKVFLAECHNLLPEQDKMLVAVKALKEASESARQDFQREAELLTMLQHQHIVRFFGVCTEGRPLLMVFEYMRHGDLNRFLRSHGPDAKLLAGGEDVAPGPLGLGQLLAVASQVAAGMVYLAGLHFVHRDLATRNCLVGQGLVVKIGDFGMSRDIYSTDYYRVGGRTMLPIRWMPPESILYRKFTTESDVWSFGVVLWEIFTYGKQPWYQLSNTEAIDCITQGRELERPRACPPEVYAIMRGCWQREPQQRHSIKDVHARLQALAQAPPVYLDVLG

A further data set has as its target T1, Ba/F3-TPM3-NTRK1 (Homo sapiens, UniProt P04629).
T1 construct: expressed in transfected cells; host or cells: Ba/F3; the other entry of the earlier key: TPM3 (P06753, Tropomyosin alpha-3 chain)
Nature of the data set: Ba/F3-TPM3-NTRK1 cells proliferation assay. Format: cell-based. The conditions noted are these: 72 h, CellTiter Glo. The procedure, abridged: (§1)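 Ba/F3 cells stably expressing TPM3-NTRK1 or ETV6-NTRK3 fusions, 2000/well, exposed 72 h to compound at 300 to 0.05 nM final (3-fold series, 0.5% DMSO). Viability by CellTiter-Glo luminescence; IC50 by four-parameter nonlinear regression.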
Background: ATP-based viability assays read luminescence as a measure of living cells.

The next data set concerns the target T2, Ba/F3-ETV6-NTRK3 (Homo sapiens, UniProt Q16288).
T2 construct: Ba/F3 cells with TPM3-NTRK1 or ETV6-NTRK3 fusion mutation gene stably overexpressed named Ba/F3-TPM3-NTRK1 and Ba/F3-ETV6-NTRK3; fused on or other part: P41212 (Transcription factor ETV6)
Nature of the data set: Ba/F3-ETV6-NTRK3 cells proliferation assay. In kind it is cell-based. To be noted: 72 h, CellTiter Glo. The method, boiled down: as §1

The next data set addresses NTRK1-G595R (Homo sapiens, UniProt P04629, G595R). Put plainly: NTRK1-G595R cell proliferation assay (Table 13). Format: cell-based.
A short description of data set [1]: Liver microsomes metabolic stability assay, human. In kind it is in vitro ADME. The conditions noted are these: human liver microsomes 0.5 mg/mL, 37° C.; for half-life at 2 μM: read-out: t1/2 Human. The procedure, abridged:
(§2)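 Pooled human, male rat or male mouse liver microsomes (0.5 mg/mL final) incubated at 37° C with 2 μM compound, with or without 1 mM NADPH. Samples at 0-60 min quenched in cold acetonitrile and analyzed by LC-MS/MS in duplicate. t1/2 derived from ln(% remaining) vs time slope, converted to CLint (μL/min/mg).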
A general note: Liver microsomes are a subcellular fraction often used to study metabolism.

Data set [2] is described as follows: Liver microsomes metabolic stability assay, rat. To be noted: male, rat liver microsomes 0.5 mg/mL, 37° C.; for half-life at 2 μM: read-out: t1/2 Rat. Format: in vitro ADME. The procedure, abridged:
as §2

The nature of data set [3]: Liver microsomes metabolic stability assay, mouse. To be noted: male, mouse liver microsomes 0.5 mg/mL, 37° C.; for half-life at 2 μM: read-out: t1/2 Mouse. In kind it is in vitro ADME. The method, boiled down: as §2

SMILES strings stand for the structures.

T1 sequence (P04629 510-796 limits assumed): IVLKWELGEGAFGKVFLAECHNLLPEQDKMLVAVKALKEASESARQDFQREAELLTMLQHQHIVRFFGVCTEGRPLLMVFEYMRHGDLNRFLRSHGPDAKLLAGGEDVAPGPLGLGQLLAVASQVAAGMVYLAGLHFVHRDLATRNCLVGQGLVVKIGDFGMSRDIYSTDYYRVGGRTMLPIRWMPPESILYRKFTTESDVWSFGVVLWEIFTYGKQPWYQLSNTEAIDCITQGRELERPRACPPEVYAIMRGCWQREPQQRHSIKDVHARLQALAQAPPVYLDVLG
T2 sequence (Q16288 whole entry, the tested form may be a part): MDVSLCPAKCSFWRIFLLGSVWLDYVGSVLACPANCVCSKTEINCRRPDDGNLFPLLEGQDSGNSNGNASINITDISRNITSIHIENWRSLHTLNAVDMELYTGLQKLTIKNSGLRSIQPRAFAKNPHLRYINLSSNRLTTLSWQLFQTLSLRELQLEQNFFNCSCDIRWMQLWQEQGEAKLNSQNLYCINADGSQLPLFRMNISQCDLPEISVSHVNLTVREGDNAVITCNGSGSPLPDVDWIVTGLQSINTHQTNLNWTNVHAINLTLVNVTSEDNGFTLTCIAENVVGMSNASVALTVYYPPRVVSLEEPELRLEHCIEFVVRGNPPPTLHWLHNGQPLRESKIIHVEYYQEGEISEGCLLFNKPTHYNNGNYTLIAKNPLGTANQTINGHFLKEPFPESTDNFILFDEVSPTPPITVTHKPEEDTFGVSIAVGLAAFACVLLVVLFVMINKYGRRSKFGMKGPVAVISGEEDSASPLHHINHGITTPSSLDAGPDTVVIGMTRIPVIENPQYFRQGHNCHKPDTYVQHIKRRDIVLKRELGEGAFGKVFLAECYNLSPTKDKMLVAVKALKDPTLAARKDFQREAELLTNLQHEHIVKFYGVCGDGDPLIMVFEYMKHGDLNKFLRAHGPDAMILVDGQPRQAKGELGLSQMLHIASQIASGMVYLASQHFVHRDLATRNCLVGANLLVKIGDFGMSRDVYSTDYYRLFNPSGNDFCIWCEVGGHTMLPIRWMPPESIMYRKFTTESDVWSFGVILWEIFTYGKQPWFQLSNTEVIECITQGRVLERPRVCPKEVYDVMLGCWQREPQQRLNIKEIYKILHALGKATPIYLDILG
Sequence of NTRK1-G595R (P04629 33-796 G595R): as the sequence (P04629 33-796) above, with G563R counted along it

As usually defined, the IC50 is the concentration at which inhibition is half-maximal. In general, microsomal CLint refers to the capacity of the preparation to metabolise the compound, expressed as a volume cleared per time. The low end stands for slow turnover, the high end for rapid turnover. Turning to `C[S+]([O-])c1cc2nc(-c3cnn4ccc(N5CCC[C@@H]5c5cc(F)ccc5F)nc34)[nH]c2cc1C#N` (stereo partly drawn) [Compound 171, 2-(5-((R)-2-(2,5-difluorophenyl)pyrrolidin-1-yl)pyrazolo[1,5-a]pyrimidin-3-yl)-5-(methylsulfinyl)-1H-benzo[d]imidazole-6-carbonitrile], the IC50 on TrkA kinase was 1 nM; on Ba/F3-TPM3-NTRK1 it was 3.41 nM; on Ba/F3-ETV6-NTRK3 it was 2.63 nM; at NTRK1-G595R, 216 nM. For the same compound, the microsomal CLint at 2 μM in data set [1] was found to be 45.4 µL/min/mg; in data set [2], 58.2 µL/min/mg; in data set [3] it was 71.2 µL/min/mg. Moreover, the half-life at 2 μM in data set [1] came out at 0.509 h; in data set [2], 0.397 h; in data set [3], 0.324 h.
Regarding `N#Cc1cc2nc(-c3cnn4ccc(N5CCC[C@@H]5c5cc(F)ccc5F)nc34)[nH]c2cc1C#N` [Compound 148, (R)-2-(5-(2-(2,5-difluorophenyl)pyrrolidin-1-yl)pyrazolo[1,5-a]pyrimidin-3-yl)-1H-benzo[d]imidazole-5,6-dicarbonitrile], the IC50 at TrkA kinase turned out to be 1.5 nM; against Ba/F3-TPM3-NTRK1, 2.19 nM; against Ba/F3-ETV6-NTRK3, 1.56 nM; on NTRK1-G595R it was 81.8 nM. Further, the microsomal CLint at 2 μM was 1.2 µL/min/mg in data set [1], 3.6 µL/min/mg in data set [2] and 14 µL/min/mg in data set [3]. In addition, the half-life at 2 μM was 19.2 h in data set [1], 6.42 h in data set [2] and 1.65 h in data set [3].
`COc1cc2nc(-c3cnn4ccc(N5CCC[C@@H]5c5cc(F)ccc5F)nc34)[nH]c2cc1C#N` [Compound 125, (R)-2-(5-(2-(2,5-difluorophenyl)pyrrolidin-1-yl)pyrazolo[1,5-a]pyrimidin-3-yl)-5-methoxy-1H-benzo[d]imidazole-6-carbonitrile]: the IC50 on TrkA kinase was 1.1 nM; against Ba/F3-TPM3-NTRK1, 1.38 nM; against Ba/F3-ETV6-NTRK3, 2.21 nM; on NTRK1-G595R, 46.6 nM. Also, the microsomal CLint at 2 μM in data set [1] came out at 17.2 µL/min/mg; in data set [2] it was 15 µL/min/mg; in data set [3], 16.4 µL/min/mg. Besides, the values for the half-life at 2 μM in data set [1], in data set [2] and in data set [3] were 1.34 h, 1.54 h and 1.41 h, respectively.
